Data taken from PubChem BioAssay AID248 (DTP/NCI, 2004).
Several values for one entry are separate records, joined by “and”; a condition that tells them apart may be missing. Equal entries are not always repeated. Toxic doses and inconclusive results are not listed. Rule as the data show it: active = T/C of 150% or more; inactive = T/C below 125%.

Tested on: L1210 leukemia ip in BDF1 mice, survival T/C
Assay: NCI In Vivo Anticancer Drug Screen. Data for tumor model L1210 Leukemia (intraperitoneal) in B6D2F1 (BDF1) mice
Details: endpoint: mean survival time, higher = longer survival
Outline: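 Survival endpoint. Drug-treated group vs vehicle group, expressed as T divided by C. Tumor passaged by transplantation.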

[1] = dose: 100.0 mg/kg/injection, schedule: Q04DX002 (ip), vehicle: Klucel (hydroxypropylcellulose) (HPC)
[2] = dose: 400.0 mg/kg/injection, schedule: Q04DX002 (ip), vehicle: Klucel (hydroxypropylcellulose) (HPC)
[3] = dose: 200.0 mg/kg/injection, schedule: Q04DX002 (ip), vehicle: Klucel (hydroxypropylcellulose) (HPC)
[4] = dose: 100.0 mg/kg/injection, schedule: Q04DX003 (ip), vehicle: saline
[5] = dose: 12.5 mg/kg/injection, schedule: Q01DX009 (ip), vehicle: saline
[6] = dose: 25.0 mg/kg/injection, schedule: Q04DX003 (ip), vehicle: saline
[7] = dose: 50.0 mg/kg/injection, schedule: Q04DX003 (ip), vehicle: saline
[8] = dose: 100.0 mg/kg/injection, schedule: Q04DX003 (ip), vehicle: Klucel (hydroxypropylcellulose) (HPC)
[9] = dose: 200.0 mg/kg/injection, schedule: Q04DX003 (ip), vehicle: Klucel (hydroxypropylcellulose) (HPC)
[10] = dose: 400.0 mg/kg/injection, schedule: Q04DX003 (ip), vehicle: Klucel (hydroxypropylcellulose) (HPC)
[11] = dose: 100.0 mg/kg/injection, schedule: Q01DX001 (ip), vehicle: saline
[12] = dose: 200.0 mg/kg/injection, schedule: Q01DX001 (ip), vehicle: saline
[13] = dose: 400.0 mg/kg/injection, schedule: Q01DX001 (ip), vehicle: saline
[14] = dose: 75.0 mg/kg/injection, schedule: Q01DX001 (ip), vehicle: saline
[15] = dose: 150.0 mg/kg/injection, schedule: Q01DX001 (ip), vehicle: saline
[16] = dose: 100.0 mg/kg/injection, schedule: Q01DX001 (ip), vehicle: carboxymethylcellulose (CMC)
[17] = dose: 200.0 mg/kg/injection, schedule: Q01DX001 (ip), vehicle: carboxymethylcellulose (CMC)
[18] = dose: 400.0 mg/kg/injection, schedule: Q01DX001 (ip), vehicle: carboxymethylcellulose (CMC)

Measured: T/C

Cc1ccc([N+](=O)[O-])cc1NC(=O)Oc1ccc2c(C)cc(=O)oc2c1
inactive: [1] 101 % of control | [2] 95 % of control

COc1cc(CC#N)ccc1C
inactive: dose: 12.5 mg/kg/injection, schedule: Q01DX009 (ip), vehicle: alcohol 104 % of control | dose: 25.0 mg/kg/injection, schedule: Q01DX009 (ip), vehicle: alcohol 98 % of control | dose: 50.0 mg/kg/injection, schedule: Q01DX009 (ip), vehicle: alcohol 101 % of control

O=C(O)C(=S)Cc1cc(=O)[nH]c(=S)[nH]1
inactive: dose: 100.0 mg/kg/injection, schedule: Q04DX003 (ip), vehicle: saline with Tween-80 102 % of control | dose: 200.0 mg/kg/injection, schedule: Q04DX003 (ip), vehicle: saline with Tween-80 97 % of control | dose: 400.0 mg/kg/injection, schedule: Q04DX003 (ip), vehicle: saline with Tween-80 92 % of control

O=C1c2ccccc2C(=O)c2cc(Cl)ccc21
inactive: [1] 95 % of control | [3] 98 % of control | [2] 98 % of control

COC(=O)c1ccccc1-n1cnc2ccccc2c1=O
inactive: [1] 101 % of control | [3] 101 % of control | [2] 93 % of control

Cc1cccc[n+]1CC(=O)c1ccccc1
inactive: [4] 94 % of control

Oc1ccc(Nc2ccnc3cc(Cl)ccc23)cc1CN1CCCC1
inactive: [5] 102 % of control | dose: 12.5 mg/kg/injection, schedule: Q04DX003 (ip), vehicle: saline 101 % of control | dose: 25.0 mg/kg/injection, schedule: Q01DX009 (ip), vehicle: saline 102 % of control | [6] 103 % of control | dose: 50.0 mg/kg/injection, schedule: Q01DX009 (ip), vehicle: saline 100 % of control | [7] 97 % of control | dose: 75.0 mg/kg/injection, schedule: Q01DX009 (ip), vehicle: saline 95 % of control | dose: 115.0 mg/kg/injection, schedule: Q01DX009 (ip), vehicle: saline 102 % of control

CC[As](=O)(O)c1ccccc1
inactive: dose: 6.25 mg/kg/injection, schedule: Q01DX009 (ip), vehicle: saline 89 % of control | [5] 89 % of control

CC(=O)Nc1cc([N+](=O)[O-])ccc1O
inactive: [8] 101 % of control | [9] 101 % of control | [10] 101 % of control

COc1ccc(OC)c2c(C)cc(Cl)nc12
inactive: [11] 104 % of control | [12] 98 % of control | [13] 110 % of control

CNNC(=O)c1ccncc1
inactive: dose: 62.0 mg/kg/injection, schedule: Q01DX015 (ip), vehicle: water 91 % of control | dose: 125.0 mg/kg/injection, schedule: Q01DX015 (ip), vehicle: water 98 % of control

O=C(Nc1ccc(Cl)c(Cl)c1)Nc1ccccc1O
inactive: [8] 100 % of control | [9] 102 % of control | [10] 100 % of control

O=c1[nH]c(=O)n(C2OC(CO)C(O)C2O)c2ccccc12 (centres undefined)
inactive: [11] 102 % of control | [12] 93 % of control | [13] 93 % of control

Clc1ccc2c(NC3CCC(NC4CCCCC4)CC3)ccnc2c1 (centres undefined)
inactive: dose: 7.0 mg/kg/injection, schedule: Q01DX Z (ip), vehicle: carboxymethylcellulose (CMC) 102 % of control | dose: 10.0 mg/kg/injection, schedule: Q01DX Z (ip), vehicle: carboxymethylcellulose (CMC) 96 % of control | dose: 16.0 mg/kg/injection, schedule: Q01DX Z (ip), vehicle: carboxymethylcellulose (CMC) 98 % of control

O=C1OC(c2cccc([N+](=O)[O-])c2)=N/C1=C\c1cccc2ccccc12
inactive: dose: 100.0 mg/kg/injection, schedule: Q01DX009 (ip), vehicle: Klucel (hydroxypropylcellulose) (HPC) 94 % of control | dose: 100.0 mg/kg/injection, schedule: Q04DX002 (ip), vehicle: saline 96 % of control | dose: 200.0 mg/kg/injection, schedule: Q01DX009 (ip), vehicle: Klucel (hydroxypropylcellulose) (HPC) 105 % of control | dose: 200.0 mg/kg/injection, schedule: Q04DX002 (ip), vehicle: saline 101 % of control | dose: 400.0 mg/kg/injection, schedule: Q01DX009 (ip), vehicle: Klucel (hydroxypropylcellulose) (HPC) 97 % of control | dose: 400.0 mg/kg/injection, schedule: Q04DX002 (ip), vehicle: saline 94 % of control

Cn1cnc2c3cccnc3ccc21
inactive: [14] 95 % of control | [15] 103 % of control

CSc1ncc(CO)c(N)n1
inactive: dose: 50.0 mg/kg/injection, schedule: Q01DX001 (ip), vehicle: carboxymethylcellulose (CMC) 111 % of control | [16] 98 % of control | [17] 102 % of control | [18] 111 % of control

CC(/C(=N\N=C(N)N)c1ccccc1)N(C)C (centres undefined)
inactive: dose: 15.0 mg/kg/injection, schedule: Q01DX Z (ip), vehicle: methylcellulose (MC) 94 % of control | dose: 30.0 mg/kg/injection, schedule: Q01DX Z (ip), vehicle: methylcellulose (MC) 108 % of control | dose: 50.0 mg/kg/injection, schedule: Q01DX Z (oral), vehicle: methylcellulose (MC) 100 % of control | dose: 60.0 mg/kg/injection, schedule: Q01DX Z (ip), vehicle: methylcellulose (MC) 95 % of control | dose: 100.0 mg/kg/injection, schedule: Q01DX Z (oral), vehicle: methylcellulose (MC) 86 % of control | dose: 120.0 mg/kg/injection, schedule: Q01DX Z (ip), vehicle: methylcellulose (MC) 88 % of control

CC(=O)O[C@H]1CC[C@@]2(C)C(=CC[C@H]3[C@@H]4CC[C@H](O)[C@@]4(C)CC[C@@H]32)C1
inactive: [8] 103 % of control | [9] 103 % of control | [10] 96 % of control

COC(=O)C1(c2ccccc2)C(c2ccccc2)=C(c2ccccc2)C(c2ccccc2)CC1c1ccccc1 (centres undefined)
inactive: [1] 103 % of control | [3] 96 % of control | [2] 92 % of control

CC(=O)Nc1ccc(SS(=O)(=O)c2ccc(NC(C)=O)cc2)cc1
inactive: [11] 95 % of control | [12] 101 % of control | [13] 101 % of control

Nc1ccc(CCCCc2ccccc2)c(Cl)c1
inactive: [14] 90 % of control | [15] 96 % of control

Cc1cnc(N[N+](=O)[O-])nc1-c1ccccc1O
inactive: [1] 96 % of control | [3] 108 % of control | [2] 105 % of control

CC[N+](C)(C)CCCOC(=O)C1C2CC3OC(=O)C1C3C2 (centres undefined)
inactive: [6] 101 % of control | [7] 105 % of control | [4] 103 % of control and 108 % of control | dose: 200.0 mg/kg/injection, schedule: Q04DX003 (ip), vehicle: saline 97 % of control

CC(=O)CC(=O)C(F)(F)F.CC(=O)CC(=O)C(F)(F)F.CC(=O)CC(=O)C(F)(F)F.[Cr]
inactive: [16] 109 % of control | [17] 96 % of control | [18] 98 % of control

Cc1ccc(S(=O)(=O)NC(Cc2ccccc2)C(=O)Nc2cccnc2)cc1 (centres undefined)
inactive: dose: 100.0 mg/kg/injection, schedule: Q01DX001 (ip), vehicle: Klucel (hydroxypropylcellulose) (HPC) 91 % of control | dose: 200.0 mg/kg/injection, schedule: Q01DX001 (ip), vehicle: Klucel (hydroxypropylcellulose) (HPC) 100 % of control | dose: 400.0 mg/kg/injection, schedule: Q01DX001 (ip), vehicle: Klucel (hydroxypropylcellulose) (HPC) 88 % of control

O=C(O)C1OC1C(=O)O (centres undefined)
inactive: dose: 75.0 mg/kg/injection, schedule: Q01DX009 (ip), vehicle: saline with Tween-80 101 % of control | dose: 75.0 mg/kg/injection, schedule: Q04DX003 (ip), vehicle: saline 100 % of control | dose: 150.0 mg/kg/injection, schedule: Q01DX009 (ip), vehicle: saline with Tween-80 103 % of control | dose: 150.0 mg/kg/injection, schedule: Q04DX003 (ip), vehicle: saline 98 % of control | dose: 300.0 mg/kg/injection, schedule: Q01DX009 (ip), vehicle: saline with Tween-80 95 % of control | dose: 300.0 mg/kg/injection, schedule: Q04DX003 (ip), vehicle: saline 100 % of control

CCCN(CCC)NC(=O)c1ccc(N=NN(C)C)cc1
inactive: dose: 25.0 mg/kg/injection, schedule: Q01DX001 (ip), vehicle: other 106 % of control | dose: 50.0 mg/kg/injection, schedule: Q01DX001 (ip), vehicle: other 98 % of control | dose: 100.0 mg/kg/injection, schedule: Q01DX001 (ip), vehicle: other 106 % of control | dose: 100.0 mg/kg/injection, schedule: Q01DX001 (ip), vehicle: saline with Tween-80 101 % of control
